This experiment addresses T1, small-conductance Ca2+-activated K+ channels (SK channels, subtype 2) (Homo sapiens, UniProt Q9H2S1).
T1 construct: expressed in transfected cells; host or cells: HEK293
Briefly: whole-cell patch-clamp of ionic current through SK2 channels in HEK293 cells (SC100). It is filed as cell-based. The following applies: whole-cell patch-clamp, HEK293 cells expressing SK2 channels; concentration that increases the basal current by 100%. The essentials: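 SC100, the concentration doubling basal current (a 100% increase), was taken from SK2 currents recorded by whole-cell patch-clamp in SK2-expressing HEK293 cells.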
Background: The patch-clamp technique gives a direct electrical read-out from membranes.

In the case of `OCc1cc(NC2CCC(F)(F)CC2)nc(-c2nc(C3CC3)cs2)n1` [IN11147-082-P1, (2-(4-cyclopropylthiazol-2-yl)-6-((4,4-difluorocyclohexyl)amino)pyrimidin-4-yl) methanol], the “SC100 (μM)” value is recorded as “++ (++ means 200 nM-1000 nM)”.

For `COc1cnc(-c2nc(C3CC3)cs2)nc1NC1CCC(F)(F)CC1` [IN11147-096-P1, 2-(4-cyclopropylthiazol-2-yl)-N-(4,4-difluorocyclohexyl)-5-methoxypyrimidin-4-amine], the “SC100 (μM)” value is listed as “+++ (+++ means <200 nM)”.

Regarding `FC1(F)CCC(Nc2cc(OCc3cnco3)nc(-n3ccc(C4CC4)n3)n2)CC1` [IN11166-020-P1], the “SC100 (μM)” value is “++ (++ means 200 nM-1000 nM)”.

`FC1(F)CCC(Nc2cc(C3CC3)nc(-n3ccc(C4CC4)n3)n2)CC1` [IN11166-036-P1, 6-cyclopropyl-2-(3-cyclopropyl-1H-pyrazol-1-yl)-N-(4,4-difluorocyclohexyl)pyrimidin-4-amine]: the “SC100 (μM)” value is “++ (++ means 200 nM-1000 nM)”.

As to `CC(=O)N1CC=C(c2cc(NC3CCC(F)(F)CC3)nc(-n3ccc(C4CC4)n3)n2)CC1` [IN11166-038-P1, 1-(4-(2-(3-cyclopropyl-1H-pyrazol-1-yl)-6-((4,4-difluorocyclohexyl)amino)pyrimidin-4-yl)-3,6-dihydropyridin-1(2H)-yl)ethan-1-one], the “SC100 (μM)” value is “+++ (+++ means <200 nM)”.

Consider `CC(=O)N1CCC(c2cc(NC3CCC(F)(F)CC3)nc(-n3ccc(C4CC4)n3)n2)CC1` [IN11166-042-P1, 1-(4-(2-(3-cyclopropyl-1H-pyrazol-1-yl)-6-((4,4-difluorocyclohexyl)amino)pyrimidin-4-yl)piperidin-1-yl)ethan-1-one], for which the “SC100 (μM)” value was “++ (++ means 200 nM-1000 nM)”.

Consider `CC(C)(C)c1ccn(-c2nc(NC3CCC(F)(F)CC3)cc(N3CCOCC3)n2)n1` [IN11177-025-P1, 2-(3-(tert-butyl)-1H-pyrazol-1-yl)-N-(4,4-difluorocyclohexyl)-6-morpholinopyrimidin-4-amine], for which the “SC100 (μM)” value was “+ (+ means >1 uM)”.

Turning to `Cc1cc(NC2CCC(F)(F)CC2)nc(-n2ccc(C(C)(C)C)n2)n1` [IN11177-029-P1], the “SC100 (μM)” value is “++ (++ means 200 nM-1000 nM)”.

Turning to `Cc1ccn(-c2cc(OCc3ncco3)cc(NC3CCC(F)(F)CC3)n2)n1` [IN11177-043-P1], the “SC100 (μM)” value is reported as “++ (++ means 200 nM-1000 nM)”.

As to `Cc1ccn(-c2nc(NC3CCC(F)(F)CC3)cc(N3CCN(C)C(=O)C3)n2)n1` [IN11177-049-P1], the “SC100 (μM)” value is “++ (++ means 200 nM-1000 nM)”.

Consider `Cc1ccn(-c2cc(OCc3cnco3)cc(NC3CCC(F)(F)CC3)n2)n1` [IN11177-056-P1], for which the “SC100 (μM)” value is on record as “+++ (+++ means <200 nM)”.

As to `Cc1csc(-c2nc(NC3CCC(F)(F)CC3)cc(C(C)C)n2)n1` [IN11177-064-P1, N-(4,4-difluorocyclohexyl)-6-isopropyl-2-(4-methylthiazol-2-yl)pyrimidin-4-amine], the “SC100 (μM)” value is given as “++ (++ means 200 nM-1000 nM)”.

For `N#Cc1ccn(-c2nc(NC3CCC(F)(F)CC3)cc(N3CCOCC3)n2)n1` [IN11177-068-P1], the “SC100 (μM)” value is on record as “+ (+ means >1 uM)”.

In the case of `Cc1csc(-c2nc(NC3CCC(F)(F)CC3)cc(OCC#N)n2)n1` [IN11196-007-P1, 2-((6-((4,4-difluorocyclohexyl)amino)-2-(4-methylthiazol-2-yl)pyrimidin-4-yl)oxy)acetonitrile], the “SC100 (μM)” value is on record as “++ (++ means 200 nM-1000 nM)”.

With `Cc1csc(-c2nc(NC3CCC(F)(F)CC3)cc(=O)n2CC#N)n1` [IN11196-007-P2, 2-(4-((4,4-difluorocyclohexyl)amino)-2-(4-methylthiazol-2-yl)-6-oxopyrimidin-1(6H)-yl)acetonitrile], the “SC100 (μM)” value was “+ (+ means >1 uM)”.

Turning to `COC(C)c1cc(NC2CCC(F)(F)CC2)nc(-n2ccc(C3CC3)n2)n1` (stereo not drawn) [IN11196-026-P1, 2-(3-cyclopropyl-1H-pyrazol-1-yl)-N-(4,4-difluorocyclohexyl)-6-(1-methoxyethyl)pyrimidin-4-amine], the “SC100 (μM)” value is given as “+ (+ means >1 uM)”.

With `[2H]C1([2H])OC([2H])([2H])C([2H])([2H])N(c2cc(NC3CCC(F)(F)CC3)nc(-n3ccc(C)n3)n2)C1([2H])[2H]` [IN11196-039-P1], the “SC100 (μM)” value is recorded as “++ (++ means 200 nM-1000 nM)”.

For `CC1=NN(c2nc(NC3CCC(F)(F)CC3)cc(N3CCOCC3)n2)CC1` [IN11196-041-P1, N-(4,4-difluorocyclohexyl)-2-(3-methyl-4,5-dihydro-1H-pyrazol-1-yl)-6-morpholinopyrimidin-4-amine], the “SC100 (μM)” value is “+ (+ means >1 uM)”.

Consider `COc1c(NC2CCC(F)(F)CC2)nc(-c2nc(C)cs2)n(CC#N)c1=O` [IN11196-065-P1], for which the “SC100 (μM)” value is given as “+ (+ means >1 uM)”.

`Cc1csc(-c2nc(NC3CCC(F)(F)CC3)cc(-c3ccccn3)n2)n1` [IN11196-080-P1]: the “SC100 (μM)” value is “+ (+ means >1 uM)”.

Turning to `Cc1ccc(-c2nc(NC3CCC(F)(F)CC3)cc(N3CCOCC3)n2)[nH]1` [IN11196-081-P1, N-(4,4-difluorocyclohexyl)-2-(5-methyl-1H-pyrrol-2-yl)-6-morpholino pyrimidin-4-amine], the “SC100 (μM)” value was “+ (+ means >1 uM)”.

Regarding `Cc1cc(NC2CCC(F)(F)CC2)nc(-n2cc3c(n2)CCC3)n1` [IN11216-001-P1], the “SC100 (μM)” value is given as “+ (+ means >1 uM)”.

`CCOC(=O)c1cn(-c2nc(NC3CCC(F)(F)CC3)cc(N3CCOCC3)n2)nc1C` [IN11216-043-P1]: the “SC100 (μM)” value is “+ (+ means >1 uM)”.

On to `Cc1nn(-c2nc(NC3CCC(F)(F)CC3)cc(N3CCOCC3)n2)cc1F` [IN11216-050-P1], for which the “SC100 (μM)” value was “++ (++ means 200 nM-1000 nM)”.

Take `Cc1cc(NC2CCC(F)(F)CC2)nc(-n2cc(-n3cc(F)c(C)n3)c(C)n2)n1` [IN11216-072-P1]: the “SC100 (μM)” value is listed as “+ (+ means >1 uM)”.

Consider `COc1nn(-c2nc(NC3CCC(F)(F)CC3)cc(N3CCOCC3)n2)cc1F` [IN11216-073-P1], for which the “SC100 (μM)” value was “+++ (+++ means <200 nM)”.

For the molecule `FC1(F)CCC(Nc2cc(N3CCCOCC3)nc(-n3ccc(C4CC4)n3)n2)CC1` [IN11217-003-P1, 2-(3-cyclopropyl-1H-pyrazol-1-yl)-N-(4,4-difluorocyclohexyl)-6-(1,4-oxazepan-4-yl)pyrimidin-4-amine], the “SC100 (μM)” value is “++ (++ means 200 nM-1000 nM)”.

Take `Cc1ccn(-c2cc(COc3cccnn3)cc(NC3CCC(F)(F)CC3)n2)n1` [IN11217-056-P1, N-(4,4-difluorocyclohexyl)-6-(3-methyl-1H-pyrazol-1-yl)-4-((pyridazin-3-yloxy)methyl)pyridin-2-amine]: the “SC100 (μM)” value is “++ (++ means 200 nM-1000 nM)”.

With `OC(c1cc(NC2CCC(F)(F)CC2)nc(-n2ccc(C3CC3)n2)n1)C(F)(F)F` (stereo not drawn) [IN11217-068-P1, 1-(2-(3-cyclopropyl-1H-pyrazol-1-yl)-6-((4,4-difluorocyclohexyl)amino)pyrimidin-4-yl)-2,2,2-trifluoroethan-1-ol], the “SC100 (μM)” value was “+ (+ means >1 uM)”.

As to `CCOCCc1cc(NC2CCC(F)(F)CC2)nc(-n2ccc(C3CC3)n2)n1` [IN11217-069-P1, 2-(3-cyclopropyl-1H-pyrazol-1-yl)-N-(4,4-difluorocyclohexyl)-6-(2-ethoxyethyl)pyrimidin-4-amine], the “SC100 (μM)” value is listed as “+ (+ means >1 uM)”.

As for `COc1cc(C)n(-c2nc(NC3CCC(F)(F)CC3)cc(N3CCOCC3)n2)n1` [IN11217-088-P1], the “SC100 (μM)” value is “+ (+ means >1 uM)”.

Consider `CC(=O)N1CCC(Oc2cc(NC3CCC(F)(F)CC3)nc(-n3ccc(C)n3)c2)CC1` [IN11218-025-P1, 1-(4-((2-((4,4-difluorocyclohexyl)amino)-6-(3-methyl-1H-pyrazol-1-yl)pyridin-4-yl)oxy)piperidin-1-yl)ethan-1-one], for which the “SC100 (μM)” value is on record as “++ (++ means 200 nM-1000 nM)”.

As for `Cc1cc(NC2CCC(F)(F)CC2)nc(-n2ccc(C3(N)CC3)n2)n1` [IN11218-026-P1, 2-(3-(1-aminocyclopropyl)-1H-pyrazol-1-yl)-N-(4,4-difluorocyclohexyl)-6-methylpyrimidin-4-amine hydrogen chloride], the “SC100 (μM)” value was “+ (+ means >1 uM)”.

Consider `Cc1csc(-c2nc(NC3CCC(F)(F)CC3)cc(-c3ccccc3)n2)n1` [IN11218-030-P1], for which the “SC100 (μM)” value was “++ (++ means 200 nM-1000 nM)”.

`Cc1csc(-c2nc(NC3CCC(F)(F)CC3)cc(C(C)(C)C)n2)n1` [IN11220-039-P1, 6-(tert-butyl)-N-(4,4-difluorocyclohexyl)-2-(4-methylthiazol-2-yl)pyrimidin-4-amine]: the “SC100 (μM)” value was “++ (++ means 200 nM-1000 nM)”.

Take `Cc1ccnn1-c1nc(NC2CCC(F)(F)CC2)cc(N2CCOCC2)n1` [IN11237-056-P1]: the “SC100 (μM)” value was “+ (+ means >1 uM)”.

Consider `CCOC(=O)c1cnc(-c2nc(C)cs2)nc1NC1CCC(F)(F)CC1` [IN11238-035-P1, ethyl 4-((4,4-difluorocyclohexyl)amino)-2-(4-methylthiazol-2-yl)pyrimidine-5-carboxylate], for which the “SC100 (μM)” value is given as “+ (+ means >1 uM)”.

For `Cc1csc(-c2ncc(CO)c(NC3CCC(F)(F)CC3)n2)n1` [IN11238-040-P1, (4-((4,4-difluorocyclohexyl)amino)-2-(4-methylthiazol-2-yl)pyrimidin-5-yl) methanol], the “SC100 (μM)” value is reported as “+ (+ means >1 uM)”.

Turning to `COCc1cnc(-c2nc(C)cs2)nc1NC1CCC(F)(F)CC1` [IN11238-046-P1], the “SC100 (μM)” value was “+ (+ means >1 uM)”.

Take `NC(=O)OCc1cc(NC2CCC(F)(F)CC2)nc(-n2ccc(C3CC3)n2)n1` [IN11239-001-P1, (2-(3-cyclopropyl-1H-pyrazol-1-yl)-6-((4,4-difluorocyclohexyl)amino)pyrimidin-4-yl)methyl carbamate]: the “SC100 (μM)” value is recorded as “++ (++ means 200 nM-1000 nM)”.

As for `Cc1csc(-c2nc(C)cc(NC3CCC(F)(F)CC3)n2)c1` [IN11239-029-P1, N-(4,4-difluorocyclohexyl)-6-methyl-2-(4-methylthiophen-2-yl)pyrimidin-4-amine], the “SC100 (μM)” value is listed as “+ (+ means >1 uM)”.

`CC(=O)c1ccn(-c2nc(NC3CCC(F)(F)CC3)cc(N3CCOCC3)n2)n1` [IN11243-031-P1]: the “SC100 (μM)” value was “+ (+ means >1 uM)”.

The values above are taken from patent US10774064B2 (Cadent Therapeutics, Inc., priority 2016, dated 2020).
